From US20040014672A1, “Novel crystalline form of 6-hydroxy-3-(4-[2-(piperidin-1-yl)ethoxy]phenoxy)-2-(4-methoxyphenyl)benzo[b]thiophene hydrochloride” (priority 2003, published 2004)

Legend:
Assay type in all cases: physicochemical
[1] = Variable temperature X-ray powder diffraction (crystal form stability); settings: up to 125° C., increments of 25° C.
Protocol: Variable temperature X-ray powder diffraction patterns were obtained on a Siemens D5000 X-ray powder diffractometer which was equipped with a CuKα source (λ=1.54056) operated at 50 kV and 40 mA with a scintillation detector and nickel filter. The powder was packed into a top-loading, recessed temperature controlled holder and a smooth surface was obtained for diffraction. The sample was scanned from 2 to 35° 2θ at 2.5 seconds per step size of 0.04° beginning at 25° C. after an equilibration time of 5 minutes. Subsequent scans were obtained at increasing temperature increments of 25° C. to a maximum of 125° C.

Aqueous solubility = experiment: Aqueous solubility
[2] = Moisture sorption/desorption isotherm; settings: over the range of 0-95% RH, 25° C.
Source text: It is most commonly used to study to study desolvation processes and quantatively determine the total volatile content of a solid. DSC is a technique that is often used to screen compounds for polymorphism because the temperatures(s) at which a physical change in a material occurs is usually characteristic of that material. Moisture sorption isotherms provide evaluation of the degree of hydroscopicity associated with a given material and characterization of non-hydrates and hydrates. Lastly, XRD is a technique that detects long-range order in a crystalline material. Moisture Sorption Isotherms were generated using a VTI SGA-100 flow instrument. The samples were analyzed at 25° C. from 0-95% relative humidity (RH) for adsorption and from 95-5% RH for desorption in steps of 5% RH. The adsorption and desorption isotherms were generated as a graph of the % weight change vs. % RH.

## COc1ccc(-c2sc3cc(O)ccc3c2Oc2ccc(OCCN3CCCCC3)cc2)cc1.Cl [F-V, 6-hydroxy-3-(4-[2-(piperidin-1-yl)ethoxy]phenoxy)-2-(4-methoxyphenyl)benzo[b]thiophene hydrochloride]
[1]
  change in the diffraction pattern on heating: no significant change
Aqueous solubility
  higher aqueous solubility relative to F-III: ~10%
[2]
  weight increase in moisture sorption/desorption isotherm: 0.11%
